{
  "source": "patent US20220331445A1",
  "about": "“HIGH DENSITY LIPOPROTEIN-LIKE NANOPARTICLES AS INDUCERS OF FERROPTOSIS IN CANCER” (Northwestern University, priority 2019, published 2022)",
  "key": {"[1]": {"system": "Ramos cells", "experiment": "Cell death (MTS) assay in Ramos cells", "format": "cell-based, human", "conditions": "Ramos cells cultured with HDL NPs; inhibitor added at 1 μM", "description": "(§1) MTS assays (CellTiter; Promega) were conducted as described previously. For the Ramos, SUDHL4, Raji, Daudi, Namalwa, SUDHL6 and Jurkat cells were plated at a density of 2×10^5 cells/mL, and cultured for 72 hours prior to assay. SUDHL1, SR-786, and U937 cells were plated at a density of 5×10^4 cells/mL and cultured for 5 days prior to MTS assay. The SCARB1 blocking and isotype control antibodies were added at a dilution of 1:1000 to 1:250. Ferrostatin-1 and deferoxamine (DFO) were obtained from Sigma Aldrich, and added at a final concentration of 1 μM. MTS values were standardized to PBS control."}, "[2]": {"system": "SUDHL4 cells", "experiment": "Cell death (MTS) assay in SUDHL4 cells", "format": "cell-based, human", "conditions": "SUDHL4 cells cultured with HDL NPs; inhibitor added at 1 μM", "description": "as §1"}, "[3]": {"system": "786-O (renal cell carcinoma-clear cell) cells", "experiment": "MTS cell death / rescue assay in 786-O cells", "format": "cell-based", "conditions": "786-O cells with HDL NPs"}, "[4]": {"system": "769-P, a clear cell renal carcinoma cell line", "experiment": "MTS cell death / rescue assay in 769-P cells", "format": "cell-based", "conditions": "769-P cells with HDL NPs"}, "[5]": {"system": "OVCAR5 cell line", "experiment": "MTS cell death / rescue assay in OVCAR5 cells", "format": "cell-based", "conditions": "OVCAR5 cells with HDL NPs"}, "[6]": {"system": "OVCAR5 CP Resistant Cell Line", "experiment": "MTS cell death / rescue assay in OVCAR5 CP Resistant cells", "format": "cell-based", "conditions": "OVCAR5 CP Resistant cells with HDL NPs"}},
  "data": [
    {"smiles": "CCOC(=O)c1ccc(NC2CCCCC2)c(N)c1", "note": "[ferrostatin-1]", "values": [
      {"measurement": "effect on HDL NP induced cell death", "setting": "[1]", "result": "significantly inhibited"},
      {"measurement": "effect on HDL NP induced cell death", "setting": "[2]", "result": "significantly inhibited"},
      {"measurement": "effect on cell death induced by HDL NPs (MTS Rescue Assay)", "setting": "[3]", "result": "rescued"},
      {"measurement": "effect on cell death induced by HDL NPs (MTS Rescue Assay)", "setting": "[3]; listed as Ferrostatin-1", "result": "dramatic effects"},
      {"measurement": "effect on cell death induced by HDL NPs (MTS)", "setting": "[4]", "result": "rescued"},
      {"measurement": "effect on cell death induced by HDL NPs (MTS)", "setting": "[5]", "result": "rescued"},
      {"measurement": "effect on cell death induced by HDL NPs (MTS)", "setting": "[6]", "result": "rescued"}
    ]}
  ]
}
